Data: patent US20160030628A1, “TREATMENT FOR BILE LEAKAGE” (3-D MATRIX, LTD, priority 2013, published 2016)

Key:
[1] = system: gallbladder bile leakage occlusion site; assay: histopathology assessment (H&E) of the bile leakage occlusion site; assay type: in vivo, porcine; conditions: gallbladder fixed in formalin after occlusion with 2.5% w/v RADA16
Experimental: (§1) The objective of this study was to evaluate a self-assembling peptide solution (RADA16 in the form of PuraMatrix™ peptide hydrogel by 3-D Matrix, LTD.) as a bile leakage occlusion material in a porcine model. A histopathology assessment was also performed.
After bile leakage occlusion was achieved, the gallbladder was fixed in formalin and the H&E-stained pathological specimen was made at the bile leakage occlusion site.

[2] = system: bile leakage from punctured gall bladder; assay: bile leakage occlusion in a porcine gall bladder needle puncture model; assay type: in vivo; conditions: 2.5% w/v RADA16
Experimental: as §1
On the day of testing, an animal was sedated and prepared for surgery. A bile leakage model was prepared by puncturing needle punctures, using a 20G injection needle in the gall bladder of the test subject, as shown in FIG. 1A.
Subsequent to applying the self-assembling peptide solution, a bile leakage occlusion was confirmed at 1 minute, 20 seconds, as shown in FIG. 1D.
It was determined that 0.5 mL of the peptide solution was used to achieve the bile leakage occlusion of the needle puncture in the gallbladder.

Arg-Ala-Asp-Ala-Arg-Ala-Asp-Ala-Arg-Ala-Asp-Ala-Arg-Ala-Asp-Ala (RADARADARADARADA) [RADA16, self-assembling peptide; 1 and 2.5 w/v percent aqueous solutions available as PuraMatrix peptide hydrogel by 3-D Matrix]
histopathological finding at bile leakage occlusion site (H&E-stained specimen, FIG. 2) [1]: occluded the bile leakage site | volume of peptide solution used to achieve the bile leakage occlusion of the needle puncture ([2]; 20G needle puncture in the gallbladder, porcine model): 0.5 mL | secondary bile leakage after excess hydrogel was irrigated from the site ([2]; checked at 3 minutes, porcine gall bladder puncture): absence of a secondary bile leakage was confirmed
